The subject of this data set is human ABCB11 mRNA. Briefly: ASO treatment of primary human hepatocytes (PHH), ABCB11 mRNA by RT-qPCR normalized to B2M. More on the design: ABCB11 mRNA, dose titration: unit of the concentration uncertain. To be noted: for ABCB11 mRNA FC (5 μM ASO vs. UNT) / ABCB11 FC mRNA (5 μM ASO vs. untreated): primary human hepatocytes; for ABCB11 mRNA FC (5 μM ASO vs. UNT): normalized to untreated PHHs (UNT); for ABCB11 FC mRNA (5 μM ASO vs. untreated): 5 μM ASO with PO-modifications, normalized to untreated hepatocytes. Format: cell-based. On the procedure:
Primary human hepatocytes (PHH) were thawed using Lonza Human Cryopreserved Hepatocyte Thawing Medium and plated in 96-well collagen-coated plates (5.5-6.0×10^4 cells per well). Four hours later, the media was replaced with sterile-filtered QualGro™ Hepatocyte Culture Medium (BioIVT) containing antibiotic supplement, 0.3 mg/ml Matrigel® matrix (Corning®), and ASO at the desired concentration (e.g., 1.25 μM, 2.5 μM, 5 μM, or 10 μM). After 72 hrs., cells were harvested by aspirating media, washing once with phosphate-buffered saline (PBS), and lysed with 150 μl of Buffer RLT lysis buffer (Qiagen®). Plates were frozen at-80° C. during cell lysis. After thawing, total RNA was isolated using the Qiagen RNEasy kit as instructed by manufacturer. cDNA (random-primed) was synthesized from 10 μl of RNA using the LifeTech High Capacity cDNA Reverse Transcription kit. 2 μl of cDNA was used for reverse transcription-quantitative PCR (RT-qPCR) analyses using standard Taqman” reagents from Applied Biosystems™ to measure ABCB11 and CYP7A1 gene expression. Gene expression data was normalized to the housekeeper gene, beta-2-microglobulin (B2M).
To assess the ability of ASOs targeting ABCB11 regRNAs to modulate the expression of human ABCB11, 195 ASOs targeting the human ABCB11 regRNAs were synthesized. These initial ASOs were screened in PHHs at 5 μM to determine their efficacy in increasing human ABCB11 mRNA using quantitative PCR. This initial screen identified 10 ASOs that induced increased expression of ABCB11 mRNA by more than 1.5-fold (as compared to untreated PHHs).
(In general: Real-time PCR tracks product formation cycle by cycle.)

Strand notation (5' to 3'): a small letter for the sugar, then the base; units joined by * are phosphorothioate-linked, units joined directly phosphodiester-linked; [ ] holds rarer units or linkages, { } end groups; capitals alone tell only the bases. e = 2'-O-(2-methoxyethyl) (MOE); l = locked nucleic acid (LNA); [5mC] = 5-methylcytosine; d = 2'-deoxy (DNA)

For the substance “CO-4034 (antisense e[5mC]*eG*eA*eG*eG*eT*eT*eG*eG*eA*eA*eA*eA*eG*eG*eT*eT*eG*eT*eG)”, the “ABCB11 mRNA FC (5 μM ASO vs. UNT)” value was found to be 0.792 fold change.
As to “CO-6674 (antisense eT*eG*eG*eA*eA*eG*eG*eA*e[5mC]*eA*e[5mC]*eA*eA*eT*eT*eT*e[5mC]*eT*eG*eT)”, the “ABCB11 mRNA FC (5 μM ASO vs. UNT)” value is 1.175 fold change.
The same measure, in the same setting: the value for “CO-4039 (antisense eG*eG*eT*eT*eA*eT*eT*eG*e[5mC]*eT*e[5mC]*eT*eG*eA*eG*eT*eA*eT*eG*eT)” was 1.022 fold change.
With “CO-4518 (antisense e[5mC]*eT*eA*e[5mC]*eT*eA*eG*eT*eT*eG*eT*eT*eA*e[5mC]*eA*e[5mC]*e[5mC]*eT*eT*eA)”, the “ABCB11 mRNA FC (5 μM ASO vs. UNT)” value came out at 0.981 fold change.
As for “CO-11220 (antisense eG*eT*lGeG*lAeG*l[5mC]eA*lAeA*l[5mC]eT*lAeG*lGe[5mC]*lAe[5mC]*eT*eG)”, the “ABCB11 FC mRNA (5 μM ASO vs. untreated)” value is reported as 2.22 fold change.
In the case of “CO-7043 (antisense eT*eT*eG*e[5mC]*eT*eT*eG*eG*eT*e[5mC]*eA*eA*eG*eA*eG*eG*eA*eA*eA*eG)”, the “ABCB11 mRNA FC (5 μM ASO vs. UNT)” value amounted to 1.1 fold change.
Same read-out and setting: the value for “CO-6675 (antisense eA*eG*e[5mC]*eA*eA*eG*e[5mC]*eT*eG*eT*eG*eT*eG*eG*eA*eA*eG*eG*eA*e[5mC])” was 1.346 fold change; that for “CO-7042 (antisense e[5mC]*eT*eT*eG*eG*eT*e[5mC]*eA*eA*eG*eA*eG*eG*eA*eA*eA*eG*eA*eA*e[5mC])” was 1.132 fold change.
Regarding “CO-11239 (antisense eG*eT*eG*eGlA*eG*e[5mC]*eAeA*lA*e[5mC]*eTeA*eG*lG*e[5mC]eA*e[5mC]*eT*eG)”, the “ABCB11 FC mRNA (5 μM ASO vs. untreated)” value stood at 1.53 fold change.
As to “CO-6977 (antisense eG*eG*eT*eA*eA*eG*eT*eT*e[5mC]*e[5mC]*eT*eG*eA*eA*eG*eT*eG*eG*eA*eG)”, the “ABCB11 mRNA FC (5 μM ASO vs. UNT)” value turned out to be 1.15 fold change.
On to “CO-11236 (antisense eG*eT*eGeGlAeGe[5mC]*eA*eA*lA*e[5mC]*eT*eA*eGlGe[5mC]eAe[5mC]*eT*eG)”, for which the “ABCB11 FC mRNA (5 μM ASO vs. untreated)” value is 1.60 fold change.
In the case of “CO-7024 (antisense eG*e[5mC]*eT*eT*eA*eT*e[5mC]*eT*eG*eG*eA*eA*eA*eA*eT*eA*eA*eT*eG*e[5mC])”, the “ABCB11 mRNA FC (5 μM ASO vs. UNT)” value turned out to be 1.415 fold change.
For “CO-11232 (antisense eG*eT*lGeG*eAlG*e[5mC]eA*lAeA*e[5mC]lT*eAeG*lGe[5mC]*eAl[5mC]*eT*eG)”, the “ABCB11 FC mRNA (5 μM ASO vs. untreated)” value turned out to be 1.72 fold change.
As for “CO-6974 (antisense eT*eG*eG*eG*eA*eA*eG*eT*eT*eT*eA*eA*eA*eA*eA*eA*eT*eG*eG*eG)”, the “ABCB11 mRNA FC (5 μM ASO vs. UNT)” value is on record as 1.394 fold change.
As to “CO-4499 (antisense eA*eA*eG*eG*eA*eA*eG*eG*eT*e[5mC]*eT*eA*eG*e[5mC]*eG*eG*eA*eG*eG*eT)”, the “ABCB11 mRNA FC (5 μM ASO vs. UNT)” value is 1.202 fold change.
On the same count and under the same terms, for “CO-7193: derivative ASO with additional chemical modifications based on parent ASO CO-4535 (eT*eG*eG*e[5mC]*eG*lT*eT*eA*eT*eT*lA*eA*eT*eT*e[5mC]*lT*eA*e[5mC]*eA*eG)” the value was 1.555 fold change.
Regarding “CO-4529: ASO targeting eRNA RR64 of human ABCB11 (antisense eG*eT*eG*eG*eA*eG*e[5mC]*eA*eA*eA*e[5mC]*eT*eA*eG*eG*e[5mC]eA*e[5mC]*eT*eG)”, the “ABCB11 mRNA FC (5 μM ASO vs. UNT)” value worked out at 1.05 fold change. For the same substance, the “ABCB11 mRNA, dose titration” value (PHHs, CO-3986 and CO-4529 tested at 2.5 (unit uncertain), 5 μM, and 10 μM) is listed as “dose-dependent increase”.
“CO-6973 (antisense eA*eA*eA*eA*eA*eT*eG*eGeGeT*eGeT*eG*eG*eA*eT*eG*eT*eA*eG)”: the “ABCB11 mRNA FC (5 μM ASO vs. UNT)” value was determined as 1.325 fold change.
Still for that read-out and setting: for “CO-7094 (eA*e[5mC]*e[5mC]*e[5mC]*l[5mC]*e[5mC]*e[5mC]*eT*l[5mC]*eA*e[5mC]e[5mC]*lT*eT*eG*eG*lT*eT*e[5mC]*e[5mC])” the value was 0.993 fold change; for “CO-7185 (antisense eT*eG*eG*e[5mC]*eG*lT*dT*dA*lT*dT*dA*lA*dT*dT*l[5mC]*eT*eA*e[5mC]*eA*eG)”, 1.327 fold change.
Still for that read-out and setting: the value for “CO-7155 (antisense eA*e[5mC]*e[5mC]*eT*eT*dA*dG*lG*dA*dG*lG*dA*dT*lT*dA*dT*lT*dT*dA*eA*e[5mC]*e[5mC]*eT*e[5mC])” was 1.253 fold change.
In the case of “CO-11209 (antisense eT*eGeT*eTeT*eTeG*e[5mC]eT*eTeG*eGeT*e[5mC]eA*eAeG*eAeG*eG)”, the “ABCB11 FC mRNA (5 μM ASO vs. untreated)” value turned out to be 1.11 fold change.
Turning to “CO-4490 (antisense e[5mC]*eG*eA*eG*eA*eA*eA*eA*eT*eG*eA*eG*eG*eT*eA*e[5mC]*eA*eT*eG*eG)”, the “ABCB11 mRNA FC (5 μM ASO vs. UNT)” value is listed as 1.158 fold change.
The same measure, in the same setting: for “CO-4057 (antisense e[5mC]*eA*eG*e[5mC]*eA*e[5mC]*eA*eA*eA*eT*eA*eT*eA*eT*eT*eG*eG*eA*eG*eG)” the value was 1.245 fold change.
The same measure, in the same setting: the value for “CO-7109 (eA*e[5mC]*eA*eT*eT*lT*dA*dG*lA*dG*dA*d[5mC]*dA*lA*dA*dG*lA*eA*eT*e[5mC]*eG*e[5mC]; antisense)” was 1.043 fold change.
Same read-out and setting: the value for “CO-7011 (antisense eT*eG*eT*eG*eG*dA*dT*eG*dT*dA*eG*dA*dT*eG*dA*dA*eT*dG*dG*e[5mC]*eA*eA*eG*eG)” was 1.284 fold change.
As for “CO-11241 (antisense eG*eTeG*eG*lA*eGe[5mC]*eA*eA*lAe[5mC]*eT*eA*eGlG*e[5mC]*eA*e[5mC]eT*eG)”, the “ABCB11 FC mRNA (5 μM ASO vs. untreated)” value stood at 1.71 fold change.
“CO-7000 (antisense eG*eT*lG*eA*eG*lG*e[5mC]*eA*lT*e[5mC]*eA*lG*eG*eT*lA*eA*eG*lT*eT*e[5mC])”: the “ABCB11 mRNA FC (5 μM ASO vs. UNT)” value is on record as 1.203 fold change.
For “CO-6983 (antisense eA*eG*eA*eA*eG*eA*e[5mC]*eA*eG*eA*eA*eG*eT*eG*eA*eG*eG*e[5mC]*eA*eT)”, the “ABCB11 mRNA FC (5 μM ASO vs. UNT)” value is 1.065 fold change.
As for “CO-11204 (antisense eT*eG*eT*eT*eTeT*eG*e[5mC]*eTeT*eG*eG*eTe[5mC]*eA*eA*eGeA*eG*eG)”, the “ABCB11 FC mRNA (5 μM ASO vs. untreated)” value is listed as 1.15 fold change.
The same measure, in the same setting: for “CO-12753 (antisense eG*eTeG*eA*eGeG*e[5mC]*eAeT*e[5mC]*eAeG*eG*eTeA*eA*eGeT*eT*e[5mC])” the value was 1.03 fold change.
For the substance “CO-7013 (antisense eA*eG*eT*eG*eA*eG*dG*d[5mC]*dA*dT*d[5mC]*dA*dG*dG*dT*dA*eA*eG*eT*eT*e[5mC]*e[5mC])”, the “ABCB11 mRNA FC (5 μM ASO vs. UNT)” value is on record as 0.997 fold change.
On the same count and under the same terms, the value for “CO-4489 (antisense e[5mC]*eA*e[5mC]*eA*eG*eA*eG*eT*eG*e[5mC]*e[5mC]*eA*eA*eG*eG*eA*eG*eT*eT*eA)” was 1.083 fold change; that for “CO-4038 (antisense e[5mC]*eT*e[5mC]*eG*eT*eA*eT*eG*eT*e[5mC]*eA*e[5mC]*eT*eG*eA*eA*e[5mC]*eT*eG*eT)” was 1.701 fold change; that for “CO-4497 (antisense eG*eG*eT*eG*eT*eT*eG*eA*eG*eA*eA*e[5mC]*eT*eA*eG*eA*eA*eT*eA*eT)” was 1.024 fold change.
